{"source": "paper PMC12892976", "about": "“Alkylation-based optimization of antifungal FPPS inhibitors yields a potent, broad-spectrum lipophilic zoledronate derivative” (mBio, 2025)", "key": {"[1]": {"test_system": "C. neoformans", "experiment": "ergosterol quantitation", "format": "cell-based, Cryptococcus neoformans", "conditions": "1× MIC vs no-drug control", "description": "Treated cultures were incubated at 30°C with shaking for 18 h for C. albicans and A. fumigatus and for 32 h for C. neoformans. Cell membrane ergosterol was then extracted and quantified as described previously ([48])."}, "[2]": {"test_system": "C. albicans", "experiment": "membrane fluidity, TMA-DPH anisotropy", "format": "cell-based, Candida albicans", "description": "(§1) Candida albicans cells were incubated for 6 h, and C. neoformans cells were incubated for 9 h at 30°C, washed, then labeled with 2 µM TMA-DPH in PBS for 10 min. […] Mycelia were fixed, and protoplasts were prepared as described previously ([50]). Protoplasts were washed twice and labeled with 2 µM TMA-DPH in PBS for 30 min. For all labeled cultures, parallel and perpendicular fluorescence intensities were measured at 440 nm in a CLARIOstar plate reader (BMG Labtech), and anisotropy was calculated."}, "[3]": {"test_system": "C. neoformans", "experiment": "membrane fluidity, TMA-DPH anisotropy", "format": "cell-based, Cryptococcus neoformans", "description": "as §1"}, "[4]": {"test_system": "A. fumigatus", "experiment": "membrane depolarization, diS-C3(3)", "format": "cell-based, Aspergillus fumigatus", "conditions": "diS-C3(3) emission maximum", "description": "Membrane depolarization was determined using potential-sensitive fluorophore diS-C3(3) (Sigma), as described previously ([51]). Yeast cells and A. fumigatus conidia were treated as described above, then washed with citrate phosphate buffer and labeled with 20 nM diS-C3(3) at a final concentration of 10^6 cells/mL for yeasts and 10^4 conidia/mL for Aspergillus. Cells were transferred to a microplate (Invitrogen), then emission spectra between 560 and 585 nm (λexcitation = 531 nm) were obtained every 12 min for 1 h using a CLARIOstar plate reader (BMG Labtech). The emission λmax was determined at each timepoint."}, "[5]": {"test_system": "A. fumigatus", "experiment": "ROS accumulation, DCFDA", "format": "cell-based, Aspergillus fumigatus", "description": "All cultures were incubated for 6 h and then labeled with 20 µM DCFDA in PBS for 30 min. Labeled cultures were transferred into a microplate, and fluorescence intensity was measured using a CLARIOstar plate reader (BMG Labtech)."}}}
{"smiles": "CCCCCCCCCCn1cc[n+](CC(O)(P(=O)(O)O)P(=O)(O)O)c1", "note": "[10-ZOL, Decyl-zoledronate]", "values": [{"measurement": "membrane ergosterol content", "setting": "[1]", "result": "significant depletion of membrane ergosterol"}, {"measurement": "concentration from which anisotropy differs significantly from no-drug control", "setting": "[2]", "result": 0.5, "unit": "× MIC"}, {"measurement": "concentration from which anisotropy differs significantly from no-drug control", "setting": "[3]", "result": 1, "unit": "× MIC"}, {"measurement": "membrane depolarization", "setting": "[4]", "result": "dose-dependent depolarization effect"}, {"measurement": "concentration at which ROS (DCFDA fluorescence) increase became significant", "setting": "[5]", "result": 2, "unit": "× MIC"}]}
